Where “and” joins values, the source holds several entries; their conditions need not be identical. Equal values may be shown once. Read-outs that look alike come from different tables or passages of the source.
Experiments:
gravid mosquitoes = assay: Field studies, biphasic ADS; type: in vivo
Ae. albopictus [1] = assay: Room assay (31 m^3), biphasic dual treatment ADS; type: in vivo, Aedes albopictus
Description: (§1) Larval bioassays for pyriproxyfen were conducted in adult emergence units (450 ml plastic Deli containers lid on) under the standard laboratory conditions as described above under the heading, Mosquito colony and maintenance. Each container received twenty early 3rd instar Ae. albopictus in 200 ml sample water. Larvae were inoculated gently using dropper before placing the lid on. Five slots (4 cm each) were cut into the lid with a clean blade for aeration. Larval food (30 mg yeast/L) was provided twice a week which was freshly prepared every time. An additional lab control group was setup in triplicate using […] water. The bioassays were conducted in the sequence of lab control and treatment to minimize the chance of contamination. Water lost due to the evaporation during bioassay was replenished. Adult emergence and pupal mortality were accessed after there was no live lava or pupa in the water. Incomplete emergence or adult with attached exuvia was recorded as pupal death. If lab control had mortality higher than 20% in larval or pupal stages, results were discarded and the experiment was repeated. The experiments were conducted under environmental conditions of 26-28° C., 60-75% RH and LD 16:8 h.
The test area was scaled up to a larger room (31 m^3) measuring 2.1 m in width, 5.7 m in length and 2.6 m in height. A station was placed in the center of the room and 10 Deli cups (450 mL, black painted from outside) containing 250 ml water were positioned 30 cm from the walls along each side of the room. Fifty gravid females were introduced for a 5-day test. The experiment was conducted under environmental conditions of 26-28° C., 60-75% RH and LD 16:8 h. The cups then were tested for pyriproxyfen activity using larval bioassay as described above. Ten additional untreated cups were included as controls. The pupal mortality in the room trials was analyzed against their respective controls with a t-test (P≤0.05).

Ae. aegypti adults = settings: pyriproxyfen dusted plastic containers, public cemetery; cited from earlier work
gravid female = assay: Serial transfer study, biphasic ADS; type: in vivo; settings: right after it exited the ADS
Ae. albopictus [2] = settings: reported as low as; Gaugler 2012, Sihuincha 2005; cited from earlier work
[3] = tested on: 3rd instar Ae. albopictus; assay: Venereal transfer from contaminated males to females, larval bioassay; type: in vivo, Aedes albopictus; settings: venereally acquired pyriproxyfen transferred to water-holding containers
Description: This experiment determined whether contaminated mosquitoes could transfer pyriproxyfen to uncontaminated individuals via mating behaviors. To ensure virginity, pupae were individually transferred to 50 ml centrifuge tubes until emergence, and then caged by gender before testing 5-7 days post-emergence. Adult males were exposed to pyriproxyfen-treated filter paper (8×10 cm Whatman No. 1) lining a 50 ml test tube. The paper was coated with 1.5 ml of corn oil as a sticker, blotted to remove excess oil, and then dusted with our pyriproxyfen powder formulation at 0.26 mg/cm of a.i. After ten minutes of exposure, males were transferred from the tube by aspirator to mating containers (450 ml capacity, 7.5 cm depth) covered with mosquito-proof mesh, and allowed to mate with uncontaminated females in pairs. […]
(§2) All insecticidal activity tests were conducted in adult emergence units—450 ml plastic containers with a screen-covered lid and 200 ml of water (water lost via evaporation was replaced before assay). […] At 2-day intervals, ground rat chow (30 mg/L) was provided as food, water lost due to evaporation was replenished, dead and emerged individuals were removed, and successful adult emergence was recorded. Incomplete emergence or adults with attached exuviae were recorded as dead.

Ae. albopictus [4] = assay: Green house assay, biphasic ADS; type: in vivo, Aedes albopictus
Description: as §1
Green house with 2 bays (8×5×2.5 m each) was used for the semi-field assay. One ADS was positioned in the center of each bay and 6 Deli cups (450 mL, black painted from outside) containing 250 mL water each were setup as shown in FIG. 5 and 10% sugar solution was provided in a plastic cup with cotton wick. In each bay, 100 gravid mosquitoes (2 days post blood feeding) were released after the setup of ADS and oviposition containers. The containers were collected and sent for lab bioassay as described above after the 5 day experiment. […] The temperature of 22-30° C. and relative humidity of 45-70% were recorded during the experiment. […]
Efficacy of pyriproxyfen was expressed as mean + standard error % of pupal mortality, which was corrected with control using Abbott's formula (Abbott W. S. (1925) J Econ Entomol; 18: 265-267). […]

Ae. albopictus [5] = assay: Attachment and persistence of IGR formulations assay, biphasic ADS (residue analysis and larval bioassay); type: in vivo, Aedes albopictus
Text: A biphasic autodissemination station (ADS) was developed to enhance attraction and contamination of gravid mosquitoes based on the previous version as described in the prior examples with modifications on the transfer chamber, which provided the attracted gravid mosquitoes a unidirectional path and biphasic formulations. The ADS consists of two main parts comprising of a water reservoir at the bottom (adapted from previous version), above which was a transfer chamber with a unidirectional cone inserted in the transfer chamber (FIGS. 12, A & B). The reservoir could hold 600 mL water, which contains dried shredded oak leaves and other materials producing attractants to the gravid mosquitoes. There were overflow protection holes located in the upper part of the reservoir as described in the previous examples. The transfer chamber was constructed with a cardboard mailing tube (101.5×155 mm; Office Depot, N.J. USA), a cotton mesh fabric (39 openings/cm^2) secured within the chamber base by hot glue, a vertical fabric band [43] (20 mm width) glued on top portion inside the transfer chamber and a horizontal flat ring (20 mm width) mounted on the top of the chamber (FIG. 12, B) to provide the base for powder band [46]. […] The spacer size was determined by preliminary study in which the gap size allowed maximum contamination of mosquitoes and minimum number of mosquitoes trapped. […]

Ae. albopictus [6] = assay: Larvicidal LC50 of pyriproxyfen; settings: unpublished data
Aedes aegypti = settings: cited from earlier work
[7] = tested on: 3rd instar Ae. albopictus; assay: Cage experiment: transfer from females to larval habitat, larval bioassay; type: in vivo, Aedes albopictus; settings: 2.2 m^3 cage, 50 gravid females, 5 days, all 36 ovicups; powder formulation on transfer mesh
Description: In the cage experiment, an autodissemination station equipped with a pyriproxyfen-treated transfer mesh and 450 ml of oak leaf infusion water was centered in a cubic 2.2 m^3 cage. A 360 ml capacity plastic cup was placed in each cage corner 15 cm from the walls. Each of the four cups was filled with 200 ml tap water and oviposition paper strips aligned as described above. Controls used a station with an untreated transfer mesh. Fifty gravid females were then introduced into the cage. After five days, the test was terminated, oviposition papers and eggs discarded, and containers were removed and the water assessed for pyriproxyfen transfer by larval bioassay (see ‘insecticide bioassays’ below). There were three treatment and one control cage per experiment and the experiment was repeated three times, providing a total of 36 test and 12 control ovicups for bioassay. […]
as §2

[8] = tested on: 3rd instar Ae. albopictus; assay: Room trial (31.1 m^3), single-phase station, larval bioassay; type: in vivo, Aedes albopictus
Description: In the room trial, the test arena was scaled-up to a larger area with dimensions of 2.1 (W)×2.6 (H)×5.7 (L) m (31.1 m^3). A station was placed in the center of the room and ovicups with oak infusion and ovistrips were positioned at each corner 30 cm from the walls. Fifty gravid females were introduced for a five day test. The ovistrips and eggs were discarded and the water from each container was tested for insecticidal activity by larval bioassay, with four additional untreated cups as controls. Environmental conditions of 26-28° C., 60-75% RH, and 16L:8D photoperiod. Inhibition of emergence in the cage and room trials was analyzed against their respective controls with a t-test (P≤0.05).
All insecticidal activity tests were conducted in adult emergence units—450 ml plastic containers with a screen-covered lid and 200 ml of water (water lost via evaporation was replaced before assay). Each container held twenty 3rd instar Ae. albopictus. Test containers were incubated at 26° C. and 16L:8D photoperiod. At 2-day intervals, ground rat chow (30 mg/L) was provided as food, water lost due to evaporation was replenished, dead and emerged individuals were removed, and successful adult emergence was recorded. Incomplete emergence or adults with attached exuviae were recorded as dead.

container mosquitoes = settings: modified sticky trap dusted with manually grained 5% pyriproxyfen powder; cited from earlier work

With `CC(COc1ccc(Oc2ccccc2)cc1)Oc1ccccn1` (stereo not drawn) [pyriproxyfen, 2-[1-methyl-2-(4-phenoxyphenoxy)ethoxy] pyridine] the containers contaminated (gravid mosquitoes; different field study, 2012, variable pupal mortality) was “more than 60%”, the “distance of pyriproxyfen transfer” value (gravid mosquitoes; field study) was 200 m and the pupal mortality (gravid mosquitoes; field study, container with 250 ml water at 200 m) was 100%. For the same compound, the “emergence inhibition in each cup” value (Ae. albopictus [1]; 31 m^3 room, 50 gravid females, 10 oviposition cups) was 100%, the “pupal mortality in each of the 10 oviposition cups” value (Ae. albopictus [1]; 31.1 m^3 room, 50 gravid mosquitoes, 5 days) was 100% and the “pupal mortality in each of the 10 oviposition cups” value (Ae. albopictus [1]; second prototype (oil and powder bands on one plate)) was 100%. The emergence inhibition (Ae. aegypti adults) was 42-98%, the “containers contaminated with 100% mortality by one gravid female” value (gravid female) was “at least 3 containers” and the LC50 (Ae. albopictus [2]) was 0.012 ppb. The inhibition of emergence [3] was 48.33±5.87%, the average pupal mortality (Ae. albopictus [4]; 6 containers per bay (100 m^3), 100 gravid females, 5 days) was 57.1+11.4% and 57.1% and the “containers to which pyriproxyfen was transferred (contamination rate)” value (Ae. albopictus [4]; 12 containers tested) was 91.7% and 91.6%. For the same compound, the “pupal mortality of the cups with low mortality” value (Ae. albopictus [4]; cups in area with human disturbance, low RH, less shade) was 0-30% and 10-30%, the pupal mortality (Ae. albopictus [5]; 24 h post exposure) was 96+1.7% and 96.7% and the emergence inhibition (Ae. albopictus [5]; up to 8 h post exposure, one mosquito per 250 mL water) was 100%. For the same compound, the LC50 (Ae. albopictus [6]) was 0.012 ppb, the LC50 (Aedes aegypti; Aedes aegypti L.) was 0.023 ppb and the LC50 (Aedes aegypti; reported as low as, Gaugler 2012, Sihuincha 2005) was 0.012 ppb. The “activity relative to temephos” value (Aedes aegypti; times the activity of temephos) was 200 ×, the “inhibition of adult emergence” value [7] was 100% and the pupal mortality ([8]; 31 m^3 room, previous (uniphase) station, 4 oviposition containers with 200 ml water) was 81%. The “smallest reduction in adult emergence among ovicups” value ([8]; 31.1 m^3 room) was 75%, the “inhibition of adult emergence” value ([8]; 31.1 m^3 room, 50 gravid females, 5 days, 4 ovicups, powder formulation) was 81.25%±2.39 and the mortality (container mosquitoes) was 40-70%.
